Experiments:
Type in all cases: in vivo
male Swiss mice [1] = assay: Paracellular permeability in mouse colon (51Cr-EDTA) during intracolonic infusion of protease inhibitors; details: 5-hour intracolonic infusion 250 μl/h, 51Cr-EDTA from hours 3 to 5
Experimental: Six groups of ten male Swiss mice (25-30 g) were used for this study. The animals received a 5-hour intracolonic infusion (250 μl/h) of the different protease inhibitor solutions through a catheter inserted through the rectum and fixed at the base of the tail; ^51Cr-EDTA was added to the infusion from hours 3 to 5 (FIG. 2). At t=5 hours, the animals were sacrificed, the colons removed, and total radioactivity remaining in the body was taken as an indicator of paracellular permeability.

male Wistar rats [2] = assay: Colon mucosa permeability to 51Cr-EDTA, radioactivity in 24-hour urine of rats; details: rat; SLIGRL 0.05, 0.2 and 0.5 mg/rat into colon lumen at t=0; 10-hour intracolonic 51Cr-EDTA infusion; vs solvent
Experimental: Six groups of eight male Wistar rats (200-250 g) were used for this study. The animals were fitted with an indwelling intracolonic catheter in the proximal colon (3 cm from the caeco-colic junction). In these experiments, four groups of rats received a 10-hour intracolonic infusion of ^51Cr-EDTA ([…]). The animals were placed in separate cages and total 24-hour urine was collected. Radioactivity was measured in the urine to evaluate the permeability of the colon mucosa to ^51Cr-EDTA. Increasing doses of the PAR-2 activator peptide (SLIGRL) were injected in the colon lumen (groups 2, 3 and 4) at time t=0 (start of ^51Cr-EDTA infusion) at a dose of 0.05, 0.2 and 0.5 mg/rat. Group 1 received the solvent.

male Swiss mice [3] = assay: Colon paracellular permeability in mice after trypsin, supernatant of colon contents and antibiotic cocktail; details: mouse, intracolonic trypsin 50 μL
Experimental: Groups of ten male Swiss mice (Janvier-France) weighing 25-30 g were used for this study. In baseline conditions, the effects on colon paracellular permeability of intracolonic infusion of trypsin (50 μL, 600 U) and of supernatant of colon contents taken from control mice and given by a 3-hour intracolonic infusion (250 μL/h) on one day (D1) or on two consecutive days (D2) were evaluated. The same infusions were then repeated after 12 days of treatment with oral an antibiotic cocktail (neomycin 2 mg/kg/day+ampicillin 1 mg/kg/day).

male Wistar rats [4] = assay: Rectal sensitivity to distention (abdominal contractions, EMG) after intracolonic trypsin; details: rat, distention at t=10 h, distention volumes 0.8, 1.2 and 1.6 ml, vs solvent control
Experimental: At time t=0, the animals received an intracolonic infusion of trypsin ([…]), a specific PAR-2 receptor activator at the dose of 20 units (group 1) or solvent (group 2). At time t=10 h after the intracolonic trypsin infusion, the animals were subjected to the rectal distention protocol.

For `CNC(=O)[C@H](Cc1c[nH]c2ccccc12)NC(=O)[C@@H](CC(=O)NO)CC(C)C` [galardin], the “paracellular permeability (total radioactivity remaining in the body)” value (male Swiss mice [1]) was “significantly lower”.
In the case of SLIGRL, the “permeability to 51Cr-EDTA (recovery in 24-hour urine)” value (male Wistar rats [2]) is reported as “dose-dependent increase”.
In the case of aprotinin, the “paracellular permeability (total radioactivity remaining in the body)” value (male Swiss mice [1]) is reported as “significantly lower”.
For trypsin, the “increase in colon permeability after the antibiotic treatment” value (male Swiss mice [3]; 600 U after 12 days of antibiotic cocktail) was “disappeared”, the “colon paracellular permeability, baseline conditions” value (male Swiss mice [3]; 600 U, normal mice) was “increase” and the “abdominal response to rectal distention” value (male Wistar rats [4]) was “significant decrease”.
